Data from patent US6130053A, “Method for selecting compounds for inhibition of neoplastic lesions” (priority 1999, dated 2000).
pIC50: −log10 of the molar value.

Assays:
[1] = test system: PKG activity in HCT116 cells; assay: PKG activity in HCT116 cells; assay type: cell-based
From the text: To test the effect of cGMP-specific PDE inhibition on neoplasia containing the β-catenin mutation, HCT116 colon cancer cells were employed. HCT116 is known to contain the β-catenin mutation, but is known not to contain the APC mutation.
The same procedure is used to grow the HCT116 cells as is used in the SW480 procedure described above. In this experiment, only exisulind and controls were used.

[2] = test system: polyp formation in adenomatous polyposis coli patients; assay: Human clinical study in APC patients, polyp formation; assay type: in vivo
Protocol: A human clinical study was performed in APC patients, selecting exisulind in each instance. In that study, each patient had already had his/her colon removed, except for a small section of colon adjacent the rectum (where the small intestine was attached) to preserve rectal function. However, such a patient commonly forms polyps in the small remaining colonic section, which polyps require periodic removal (e.g., by electrocautery).
That trial where exisulind was selected was a prevention trial designed to compare the cumulative number of new polyps formed over twelve months by the drug and placebo groups. Eligible patients were those who form between 9 and 44 polyps per year. Patients were fully ablated (had all polyps removed) at the start of the study, at the end of 6 months and at the end of 12 months. The study enrolled thirty-four eligible patients. […] Based on the median number of polyps produced in the first six months of the study, patients treated with exisulind developed approximately one-third the number of polyps as patients treated with placebo (median values 9 polyps/year and 26 polyps/year, respectively; p=0.013). Based on the median number of polyps produced over the entire 12 months of the study, patients treated with exisulind produced approximately half the number of polyps as patients treated with placebo (median values 18 polyps/year and 38 polyps/year, respectively; p=0.020).

[3] = test system: colon, breast, lung, prostate, kidney, and melanoma neoplasias; conditions: cited from earlier work
[4] = test system: PKG activity in SW480 cells; assay: PKG activity in SW480 cells (phosphorylation of GST-cGB-PDE5); assay type: cell-based, human; conditions: 48 hrs; with and without added cGMP; exisulind 200-600 μM, E4021 0.1-10 μM
Protocol: Two different types of PDE inhibitors were evaluated for their effects on PKG in neoplastic cells. […], exisulind, was evaluated since it is anti-neoplastic. […] No. 09/173,375 to Liu et al filed Oct. 15, 1998. To test the effect of cGMP-specific PDE inhibition on neoplasia containing the APC mutation, SW480 colon cancer cells were employed. SW 480 is known to contain the APC mutation. […] The liquid media are aspirated from the dishes (the cells will attach themselves to the dishes). […] Immediately after the cell lysis buffer is added, the lysed cells are collected by scraping the cells off each dish. The cell lysate from each dish is transferred to a microfuge tube, and the microfuge tubes are incubated at 4° C. for 15 minutes while gently agitating the microfuge tubes to allow the cells to lyse completely. After lysis is complete, the microfuge tubes are centrifuged full speed (14,000 r.p.m.) for 15 minutes. The supernatant from each microfuge tube is transferred to a fresh microfuge tube. A protein assay is then performed on the contents of each microfuge tube because the amount of total protein will be greater in the control than in the drug-treated samples, if the drug inhibits cell growth. Obviously, if the drug does work, the total protein in the drug-treated samples should be […] control. […]

[5] = test system: cGMP PDE; assay: cGMP PDE inhibition assay, enzyme purified from HT-29 cultured tumor cells; assay type: biochemical, human
[6] = test system: β-catenin in SW480 cells; assay: β-catenin level by Western blot in SW480 cells; assay type: cell-based, human; conditions: 48 hours
Protocol: SW480 cells were treated with exisulind or vehicle (0.1% DMSO) for 48 hours. 50 μg supernatant of each cell lysates were loaded to 10% SDS-gel and blotted to nitrocellulose membrane, and the membrane was probed with rabbit-anti-β-catenin and rabbit anti-PKG antibodies.
This observation was made by culturing SW480 cells with either 200-600 μM exisulind or vehicle (0.1% DMSO). The cells are harvested 48 hours post treatment and processed for immunoblotting. Immuno-reactive protein can be detected by western blot. […] Thus, using PKG activity in neoplastia as a screening tool to select compounds as anti-neoplastics is useful.

[7] = test system: HT-29 cells; assay: Growth inhibition of HT-29 cells; assay type: cell-based, human; conditions: HT-29
[8] = target: T1, COX-I (purified cyclooxygenase Type 1) (Ovis aries, UniProt P05979); assay: COX inhibition assay, purified cyclooxygenase (Type 1); assay type: biochemical, ram; conditions: FIG. 4
T1 construct: purified cyclooxygenase from ram seminal vesicles; from tissue; host or cells: ram seminal vesicles
T1 sequence (P05979 25-600): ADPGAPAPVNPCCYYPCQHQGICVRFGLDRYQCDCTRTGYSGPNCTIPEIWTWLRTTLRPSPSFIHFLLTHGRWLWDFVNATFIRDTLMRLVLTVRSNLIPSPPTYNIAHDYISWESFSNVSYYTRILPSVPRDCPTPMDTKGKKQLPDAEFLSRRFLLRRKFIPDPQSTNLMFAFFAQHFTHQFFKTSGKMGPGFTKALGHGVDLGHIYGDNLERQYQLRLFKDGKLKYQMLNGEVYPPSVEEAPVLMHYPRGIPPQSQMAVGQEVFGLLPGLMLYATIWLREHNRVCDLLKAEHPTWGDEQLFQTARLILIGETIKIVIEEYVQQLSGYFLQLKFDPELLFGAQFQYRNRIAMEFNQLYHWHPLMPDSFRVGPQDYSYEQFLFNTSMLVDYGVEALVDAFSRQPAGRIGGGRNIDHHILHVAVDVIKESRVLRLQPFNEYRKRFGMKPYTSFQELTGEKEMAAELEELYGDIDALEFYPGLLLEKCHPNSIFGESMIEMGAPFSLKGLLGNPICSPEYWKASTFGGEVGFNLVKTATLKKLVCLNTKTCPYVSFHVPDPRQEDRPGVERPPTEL

pIC50 [8]: < 2.00
Compound: CC1=C(CC(=O)O)c2cc(F)ccc2/C1=C\c1ccc(S(C)(=O)=O)cc1 [Exisulind, 5-fluoro-2-methyl-1-(p-methylsulfonylbenzylidene)-3-indenylacetic acid]
PKG activity relative to control [1]: phosphorylated to a greater extent than the corresponding controls | number of polyps relative to placebo, 12 months ([2]; entire 12 months): approximately half | median number of polyps, 12 months ([2]; entire 12 months, placebo 38 polyps/year): 18 polyps/year | number of polyps relative to placebo, first six months ([2]; first six months): approximately one-third | median number of polyps, first six months ([2]; first six months, placebo 26 polyps/year): 9 polyps/year | decrease of rate of polyp formation ([2]; vs placebo): clinically and statistically significantly better than placebo in decreasing the rate of polyp formation | reported anti-neoplastic effects [3]: anti-neoplastic effects on colon, breast, lung, prostate, kidney, and melanoma neoplasias | PKG activity relative to control [4]: causes PKG activity to increase in a dose-dependent manner | selectivity cGMP PDE over PDE4 [5]: selectivity for the cGMP PDE isoenzyme forms over PDE4 isoforms | β-catenin level by Western blot [6]: drop of β-catenin | tumor cell growth inhibition [7]: capable of inhibiting tumor cell growth
